Assay results from patent US10485739B2, “High strength microcapsules” (ENCAPSYS, LLC, priority 2014, dated 2019).
In brackets after ≈: the same amount, converted by molar mass.

What was measured:
[1] = temperature at which initiator has 10 hour half-life; cited from earlier work
[2] = Monomer solubility in water (GC/MS of water phase); assay type: physicochemical; settings: @ 25° C., monomer equilibrated with deionized water 24 hours; for solubility at 24 h: thermodynamic from solid
Procedure: Monomer Solubility in Water
Solubility of the monomers in water is determined by combining 5 g of monomer and 5 g of deionized water in a sealed 20 ml vial for 30 min, after which the sample is allowed to sit at room temperature for 24 hours to establish equilibrium and phase separation of monomer from water. The water phase was then removed and analyzed to determine the monomer concentration GC/MS (7890B GC with a 5977A MSD Mass Spectrophotometer), both from Agilent. Inlet temperature at 270 C. Ramp starting at 100° C. to 320° C. at 10 degrees per min. The mass spec was scanning from a molecular weight of 30-500. The GC column was a Agilent DB-SMS 30M×0.250 mm.

Row | Compound | 10 hour ½ life temperature [1] | Solubility in water [2] | further results
1 | CC(C)(N=NC(C)(C)C(=O)NCCO)C(=O)NCCO [VA-086, 2,2′-Azobis[2-methyl-N-(2-hydroxyethyl)propionamide]] | 10 hour ½ life at 86 °C |  | 
2 | Polyethylene glycol 200 diacrylate [SR259] |  | 40680 µg/mL | 
3 | C=CC(=O)OCC(COC(=O)C=C)(COC(=O)C=C)COC(=O)C=C [SR295, PENTAERYTHRITOL TETRAACRYLATE] |  |  | solubility at 24 h [2]: 4230 µg/mL (≈ 12 mM)
4 | polyethylene glycol (600) diacrylate [SR610] |  | soluble | 
5 | C=CC(=O)OCC(C)(C)COC(=O)C=C [SR247, Neopentyl glycol diacrylate] |  |  | solubility at 24 h [2]: 940 µg/mL (≈ 4.43 mM)
6 | C=C(C)C(=O)OCCOC(=O)C(=C)C [SR206, Ethylene glycol dimethacrylate] |  |  | solubility at 24 h [2]: 2400 µg/mL (≈ 12.1 mM)
7 | CC(C)(N=NC(C)(C)C(=N)N)C(=N)N.Cl [Sample V-50, 2,2′-azobis(2-amidinopropane) hydrochloride] | 10 hour ½ life at 56 °C |  | 
8 | Polyethylene glycol 400 diacrylate [SR344] |  | soluble | 
9 | C=CC(=O)OCCOCCOCC [SR256, 2-(2-ethoxyethoxy) ethyl acrylate] |  | 25330 µg/mL (≈ 135 mM) | 
10 | N#CC1(N=NC2(C#N)CCCCC2)CCCCC1 [Vazo-88, 1,1′-Azobis(cyclohexanecarbonitrile)] | 10 hour ½ life at 88 °C |  | 
11 | CCC(C)(C#N)N=NC(C)(C#N)CC (centres unmarked) [Vazo-67, 2,2′-azobis(2-methylbutyronitrile)] | 10 hour ½ life at 67 °C |  | 
